Assay: DPPH free radical scavenging activity test (percent inhibition, absorbency at 516 nm)
Assay type: biochemical
Conditions: Table 1; 1% solutions, in the manner of Example 1 (DPPH, 30 minutes at 37° C, 516 nm)
Procedure: A control solution was prepared by measuring 39.43 mg of 2,2-diphenyl-1-picrylhydrazyl hydrate (DPPH), a known source of free radicals, and diluting it to 1000 ml with ethanol. A control cuvette was charged with 1.75 ml of the control and 1.75 ml of ethanol. A blank cuvette was charged with 3.5 ml of ethanol. The cuvettes were placed in an oven for 30 minutes at 37° C. The absorbency was measured at 516 nm using a UV/vis spectrophotometer by placing the blank cuvette into the reference slot and the control cuvette into the sample slot.
An orange extract was prepared according to the method described above. A test cuvette was charged with 1.75 ml of the control solution and 1.75 ml of a 1% solution of orange extract. A reference cuvette was charged with 1.75 ml of the orange extract and 1.75 ml of ethanol. The cuvettes were placed in an oven for 30 minutes at 37° C. The absorbency was measured in the manner described above with the test cuvette placed in the sample slot and the reference cuvette placed in the reference slot.
The free radical scavenging activity was calculated as a percentage of inhibition of the generation of the free radicals using the following formula:
Percent Inhibition=100×[1-(DT/DR)]
DT is the measured absorbance of the test cuvette with respect to the reference cuvette and DR is the measured absorbance of the control cuvette with respect to the blank cuvette. […]

Structure (SMILES): CC(=O)Oc1c(C)c(C)c2c(c1C)CCC(C)(CCC[C@H](C)CCC[C@H](C)CCCC(C)C)O2 (some centres unmarked) [Tocopheryl Acetate, tocopheryl acetate]
- % INHIBITION: 67%

Structure (SMILES): O=c1oc2cc(O)ccc2s1 [Tioxolone, tioxolone]
- % INHIBITION: 50%

From patent US5916576A, “Method of scavenging free radicals using orange extract” (Amway Corporation, priority 1997, dated 1999)
